Test results taken from PubChem BioAssay (NCI).
Values joined by “and” are separate entries in the source; they are usually repeats but may differ in a detail not shown here. Equal entries are not always repeated.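 The compound was tested at five concentrations on cells cultured in 96-well plates, with a 48-hour exposure period. GI50 is the concentration that inhibits growth by half. TGI denotes the concentration required for complete inhibition of growth.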

Tests used:
Assay in all cases: NCI anticancer screen, dose series, 48 h
786-0 renal = tested on: 786-0 renal
CAKI-1 renal = tested on: CAKI-1 renal
DU-145 prostate = tested on: DU-145 prostate
HS 578T breast = tested on: HS 578T breast
M14 melanoma = tested on: M14 melanoma
MCF7 breast = tested on: MCF7 breast
MOLT-4 leukemia = tested on: MOLT-4 leukemia
NCI-H522 lung = tested on: NCI-H522 lung
SF-539 CNS = tested on: SF-539 CNS
SR leukemia = tested on: SR leukemia

Row | SMILES | GI50 (786-0 renal) | TGI (786-0 renal) | GI50 (CAKI-1 renal) | TGI (CAKI-1 renal) [µM] | GI50 (DU-145 prostate) | TGI (DU-145 prostate) | GI50 (HS 578T breast) | TGI (HS 578T breast) [µM] | GI50 (M14 melanoma) | TGI (M14 melanoma) | GI50 (MCF7 breast) | TGI (MCF7 breast) | GI50 (MOLT-4 leukemia) | TGI (MOLT-4 leukemia) [µM] | GI50 (NCI-H522 lung) | TGI (NCI-H522 lung) | GI50 (SF-539 CNS) | TGI (SF-539 CNS) | GI50 (SR leukemia) | TGI (SR leukemia)
1 | N=C(N)c1ccc(-c2ccc(-c3cccs3)s2)cc1F | 1.14 µM | 2.63 µM | 1.37 µM | 2.82 | 1.57 µM and 1.44 µM | 3.04 µM and 2.84 µM | 1.8 µM | 4.49 | 1.45 µM | 2.97 µM | 0.5 µM | 2.26 µM | 1.03 µM | 2.87 | 1.94 µM | 3.88 µM | 1.35 µM | 3.38 µM | 0.341 µM | 1.07 µM
2 | CC1(C)CC[C@]2(C(=O)O)CC[C@]3(C)C(=CC[C@@H]4[C@@]5(C)C/C(=C/c6cccnc6)[C@H](O)C(C)(C)[C@@H]5CC[C@]43C)[C@@H]2C1 | 11.2 µM | > 100 µM | 10.2 µM | > 100 | 10.7 µM | > 100 µM | 21.8 µM | > 100 | 16.7 µM | 51.3 µM | 5.25 µM | > 100 µM | 2.63 µM | 26 | 8.97 µM | > 100 µM | 5.54 µM | 24 µM | 13.2 µM | > 100 µM
3 | Cc1n[nH]c(C)c1-c1c(C)n[nH]c1C | 2.37 µM | 6.42 µM | 1.54 µM | 3.13 | 1.99 µM | 4.13 µM | 2.26 µM | 16.9 | 2.01 µM | 5.12 µM | 1.66 µM | 3.79 µM | 2.24 µM | > 27.3 | 1.66 µM | 3.63 µM | 1.73 µM | 3.35 µM | 1.21 µM | > 100 µM
4 | COC(=O)[C@@H](C)C[C@H](Cc1ccccc1)NC(=O)c1nc([C@@H](C[C@H](C(C)C)N(C)C(=O)[C@@H](NC(=O)[C@H]2CC(=O)CCN2C)C(C)C)OC(C)=O)sc1C(C)C | 0.347 µM | 8.82 µM | 0.499 µM | > 16.7 | 0.115 µM | > 5.55 µM | 0.16 µM | > 3.85 | 0.217 µM | 1.18 µM | 0.0427 µM | > 16.7 µM | 0.532 µM | > 16.7 | 0.0549 µM |  | 0.345 µM | 0.967 µM | 0.021 µM | > 16.7 µM
5 | N#CSc1c[nH]c2cccc(/C=C/C(=O)/C=C(O)/C=C/c3cccc4[nH]cc(SC#N)c34)c12 | 0.684 µM | 2.14 µM | 0.609 µM | 1.56 | 0.484 µM | 0.986 µM | 0.779 µM | 9.48 | 0.437 µM | 1.11 µM | 0.254 µM | 1.45 µM | 0.322 µM | 1.48 | 0.093 µM | 0.47 µM | 0.559 µM | 1.36 µM | 0.129 µM | > 33.3 µM
6 | N/C(=N\O)c1cn(C2OC(CO)C(O)C2O)c2ncnc(N)c12 (centres undefined) | 0.374 µM | > 100 µM | 0.132 µM | 13.1 | 0.19 µM |  | 0.263 µM | 3.62 | 0.108 µM | 0.776 µM | 0.056 µM | 1.07 µM | 0.277 µM | 1.64 | 0.157 µM | 0.401 µM | 0.255 µM | 3.51 µM | 0.0876 µM | 14.8 µM
7 | Nc1c2ccccc2nc2ccccc12 | 2.61 µM and 3.64 µM | 11.4 µM and 14.7 µM | 1.96 µM and 2.11 µM | 5.96 | 2.02 µM and 2.57 µM | 5.51 µM and 6.86 µM | 2.45 µM and 8.09 µM |  | 1.7 µM and 3.21 µM | 3.48 µM and 10 µM | 1.62 µM and 3.02 µM | 9.14 µM and 10.8 µM | 1.68 µM and 2.21 µM | 11.1 | 1.15 µM and 3.03 µM | 2.63 µM and 10.1 µM | 2.56 µM and 4.87 µM | 7.93 µM and 16.2 µM | 0.855 µM and 2.78 µM | 6.84 µM and 16.6 µM
8 | COc1cc2nc(NC3CCC3)nc(NC3CCN(C(C)C)CC3)c2cc1OC | 1.85 µM | 3.91 µM | 1.59 µM | 3.17 | 4.04 µM | 14.9 µM | 2.08 µM | 5.45 | 1.88 µM | 3.46 µM | 2.96 µM | 13 µM | 2.83 µM | 8.48 | 1.96 µM | 4.52 µM | 1.81 µM | 3.36 µM | 0.631 µM | 3.33 µM
9 | Cc1ccc(CNc2ccc(Cl)cc2NCc2ccc(C)c(O)c2)cc1O | 8.27 µM | 15.4 µM | 7.39 µM | 14 | 7.71 µM | 14.4 µM | 7.73 µM | 24.6 | 5.78 µM | 12.6 µM | 6.18 µM | 14.3 µM | 3.34 µM | 14.7 | 6.59 µM | 13.9 µM | 7.31 µM | 14.4 µM | 5.75 µM | 18.2 µM
10 | O=c1[nH]c2c(ccc3cnccc32)c2c1CCC2 | 0.344 µM | 29.9 µM | 0.308 µM | > 100 | 0.376 µM | > 100 µM | 0.247 µM | 0.808 | 0.35 µM | 1.62 µM | 0.317 µM |  | 0.386 µM | > 100 | 0.277 µM |  | 0.219 µM | 0.585 µM |  | > 100 µM
